Measured values as given in article PMC10211317, “Identification of ARUK2002821 as an isoform-selective PI5P4Kα inhibitor” (RSC Medicinal Chemistry, 2023).

Key:
Assay in all cases: Premier Screen kinase panel (MRC PPU)
Type in all cases: biochemical
[1] = target: PDK1 (Homo sapiens, UniProt O15530); details: PDK1 (Entrez PDPK1), read-out: Residual activity (%)
Protocol: (§1) room temperature with shaking for 30 minutes. The kinase concentration in the eluates was measured by qPCR.
(§2) using ADP-GloTM assay at the MRC PPU International Centre for Kinase Profiling, University of Dundee.
(§3) Conducted by MRC PPU International Centre
(§4) Conducted by MRC PPU International Centre for […]

[2] = target: TGFBR1 (Homo sapiens, UniProt P36897); details: TGFBR1 (Entrez TGFBR1), read-out: Residual activity (%)
TGFBR1, sequence (P36897 34-503): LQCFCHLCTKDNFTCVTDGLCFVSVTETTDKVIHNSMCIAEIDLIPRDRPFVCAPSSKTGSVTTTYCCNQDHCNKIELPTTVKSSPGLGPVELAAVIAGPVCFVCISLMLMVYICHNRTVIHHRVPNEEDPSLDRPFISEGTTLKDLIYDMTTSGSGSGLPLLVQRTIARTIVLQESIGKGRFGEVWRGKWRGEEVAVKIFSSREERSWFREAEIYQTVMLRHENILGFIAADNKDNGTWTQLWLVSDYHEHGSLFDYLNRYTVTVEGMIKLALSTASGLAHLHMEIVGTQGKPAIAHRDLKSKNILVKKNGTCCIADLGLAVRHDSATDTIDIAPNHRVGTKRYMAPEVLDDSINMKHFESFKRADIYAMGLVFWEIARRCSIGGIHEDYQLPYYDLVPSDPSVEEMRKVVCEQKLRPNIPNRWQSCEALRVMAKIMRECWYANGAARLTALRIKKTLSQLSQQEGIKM
Protocol: as §1, §2, §3, §4

[3] = target: MST2 (Homo sapiens, UniProt Q13188); details: MST2 (Entrez STK3), read-out: Residual activity (%)
Protocol: as §1, §2, §3, §4

[4] = target: IRAK4 (Homo sapiens, UniProt Q9NWZ3); details: IRAK4 (Entrez IRAK4), read-out: Residual activity (%)
Protocol: as §1, §2, §3, §4

[5] = target: HIPK3 (Homo sapiens, UniProt Q9H422); details: HIPK3 (Entrez HIPK3), read-out: Residual activity (%)
Protocol: as §1, §2, §3, §4

[6] = target: IR (Homo sapiens, UniProt P06213); details: IR (Entrez INSR), read-out: Residual activity (%)
Protocol: as §1, §2, §3, §4

[7] = target: JAK3 (Homo sapiens, UniProt P52333); details: JAK3 (Entrez JAK3), read-out: Residual activity (%)
Protocol: as §1, §2, §3, §4

[8] = target: SYK (Homo sapiens, UniProt P43405); details: SYK (Entrez SYK), read-out: Residual activity (%)
Protocol: as §1, §2, §3, §4

[9] = target: ASK1 (Homo sapiens, UniProt Q99683); details: ASK1 (Entrez MAP3K5), read-out: Residual activity (%)
Protocol: as §1, §2, §3, §4

[10] = target: DYRK3 (Homo sapiens, UniProt O43781); details: DYRK3 (Entrez DYRK3), read-out: Residual activity (%)
Protocol: as §1, §2, §3, §4

[11] = target: TrkA (Homo sapiens, UniProt P04629); details: TrkA (Entrez NTRK1), read-out: Residual activity (%)
Protocol: as §1, §2, §3, §4

[12] = target: ROCK 2 (Rattus norvegicus, UniProt Q62868); details: ROCK 2 (Entrez ROCK2), read-out: Residual activity (%)
Protocol: as §1, §2, §3, §4

[13] = target: EIF2AK3 (Homo sapiens, UniProt Q9NZJ5); details: EIF2AK3 (Entrez EIF2AK3), read-out: Residual activity (%)
Protocol: as §1, §2, §3, §4

[14] = target: MSK1 (Homo sapiens, UniProt O75582); details: MSK1 (Entrez RPS6KA5), read-out: Residual activity (%)
MSK1, sequence (O75582 whole entry): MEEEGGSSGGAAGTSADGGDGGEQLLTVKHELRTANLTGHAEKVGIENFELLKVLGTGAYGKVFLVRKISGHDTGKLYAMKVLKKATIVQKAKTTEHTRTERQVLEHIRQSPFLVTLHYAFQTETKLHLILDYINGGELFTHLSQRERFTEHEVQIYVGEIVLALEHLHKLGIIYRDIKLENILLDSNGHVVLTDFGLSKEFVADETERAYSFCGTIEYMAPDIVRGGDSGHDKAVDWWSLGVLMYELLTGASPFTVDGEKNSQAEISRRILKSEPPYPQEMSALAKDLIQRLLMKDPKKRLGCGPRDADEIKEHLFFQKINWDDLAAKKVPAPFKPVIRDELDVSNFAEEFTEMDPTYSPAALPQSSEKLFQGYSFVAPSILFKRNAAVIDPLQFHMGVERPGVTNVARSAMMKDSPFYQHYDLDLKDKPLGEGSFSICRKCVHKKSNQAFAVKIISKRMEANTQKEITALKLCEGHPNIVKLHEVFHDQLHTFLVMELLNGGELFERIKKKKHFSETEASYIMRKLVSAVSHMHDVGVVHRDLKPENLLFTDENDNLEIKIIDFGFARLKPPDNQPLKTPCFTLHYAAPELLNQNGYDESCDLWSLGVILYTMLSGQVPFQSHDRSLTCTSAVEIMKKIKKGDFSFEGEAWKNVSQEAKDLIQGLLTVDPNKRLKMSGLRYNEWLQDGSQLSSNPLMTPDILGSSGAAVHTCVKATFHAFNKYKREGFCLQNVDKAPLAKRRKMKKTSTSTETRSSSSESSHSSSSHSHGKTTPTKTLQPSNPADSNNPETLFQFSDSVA
Protocol: as §1, §2, §3, §4

[15] = target: RSK1 (Homo sapiens, UniProt Q15418); details: RSK1 (Entrez RPS6KA1), read-out: Residual activity (%)
RSK1, sequence (Q15418 whole entry): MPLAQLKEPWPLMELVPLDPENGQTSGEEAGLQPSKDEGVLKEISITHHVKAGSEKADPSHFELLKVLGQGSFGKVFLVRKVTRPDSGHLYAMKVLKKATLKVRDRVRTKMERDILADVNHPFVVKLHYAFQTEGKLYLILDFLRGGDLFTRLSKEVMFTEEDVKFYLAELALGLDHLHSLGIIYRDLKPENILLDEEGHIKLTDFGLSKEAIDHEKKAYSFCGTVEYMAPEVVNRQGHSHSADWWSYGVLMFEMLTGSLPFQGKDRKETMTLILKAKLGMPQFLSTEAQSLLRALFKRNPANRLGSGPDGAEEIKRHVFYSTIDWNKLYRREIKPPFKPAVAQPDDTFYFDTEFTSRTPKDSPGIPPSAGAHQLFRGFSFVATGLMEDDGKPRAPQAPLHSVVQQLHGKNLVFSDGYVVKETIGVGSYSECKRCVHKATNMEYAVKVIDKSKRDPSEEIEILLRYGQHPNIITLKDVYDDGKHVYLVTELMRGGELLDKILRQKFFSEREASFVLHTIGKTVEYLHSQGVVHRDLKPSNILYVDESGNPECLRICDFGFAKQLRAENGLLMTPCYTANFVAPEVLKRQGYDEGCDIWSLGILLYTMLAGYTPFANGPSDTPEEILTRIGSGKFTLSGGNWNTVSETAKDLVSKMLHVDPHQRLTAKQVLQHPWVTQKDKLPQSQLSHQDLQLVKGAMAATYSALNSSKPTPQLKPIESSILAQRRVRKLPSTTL
Protocol: as §1, §2, §3, §4

[16] = target: YES1 (Homo sapiens, UniProt P07947); details: YES1 (Entrez YES1), read-out: Residual activity (%)
Protocol: as §1, §2, §3, §4

[17] = target: AMPK (hum) (Homo sapiens, UniProt Q13131); details: AMPK (hum) (Entrez PRKAA1 + PRKAB2 + PRKAG1), read-out: Residual activity (%)
Protocol: as §1, §2, §3, §4

[18] = target: ZAP70 (Homo sapiens, UniProt P43403); details: ZAP70 (Entrez ZAP70), read-out: Residual activity (%)
ZAP70, sequence (P43403 whole entry): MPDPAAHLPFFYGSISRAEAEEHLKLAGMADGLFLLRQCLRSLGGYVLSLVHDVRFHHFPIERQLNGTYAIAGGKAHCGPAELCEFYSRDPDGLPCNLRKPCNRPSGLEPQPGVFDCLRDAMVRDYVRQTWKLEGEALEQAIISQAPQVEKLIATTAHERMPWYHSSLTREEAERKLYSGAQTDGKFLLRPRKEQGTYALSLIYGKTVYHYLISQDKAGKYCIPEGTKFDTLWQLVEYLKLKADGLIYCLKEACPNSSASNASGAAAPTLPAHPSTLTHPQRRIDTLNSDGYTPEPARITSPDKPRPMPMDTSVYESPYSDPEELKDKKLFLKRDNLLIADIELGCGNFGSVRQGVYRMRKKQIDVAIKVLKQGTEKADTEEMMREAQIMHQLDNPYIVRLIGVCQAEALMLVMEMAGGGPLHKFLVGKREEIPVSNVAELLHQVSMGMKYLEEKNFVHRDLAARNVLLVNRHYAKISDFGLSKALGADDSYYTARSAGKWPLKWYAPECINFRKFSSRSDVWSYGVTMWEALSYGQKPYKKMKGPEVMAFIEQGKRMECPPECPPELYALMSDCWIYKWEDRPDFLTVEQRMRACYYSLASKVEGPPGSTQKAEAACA
Protocol: as §1, §2, §3, §4

[19] = target: CK2 (Homo sapiens, UniProt P68400); details: CK2 (Entrez CSNK2A1), read-out: Residual activity (%)
CK2, sequence (P68400 whole entry): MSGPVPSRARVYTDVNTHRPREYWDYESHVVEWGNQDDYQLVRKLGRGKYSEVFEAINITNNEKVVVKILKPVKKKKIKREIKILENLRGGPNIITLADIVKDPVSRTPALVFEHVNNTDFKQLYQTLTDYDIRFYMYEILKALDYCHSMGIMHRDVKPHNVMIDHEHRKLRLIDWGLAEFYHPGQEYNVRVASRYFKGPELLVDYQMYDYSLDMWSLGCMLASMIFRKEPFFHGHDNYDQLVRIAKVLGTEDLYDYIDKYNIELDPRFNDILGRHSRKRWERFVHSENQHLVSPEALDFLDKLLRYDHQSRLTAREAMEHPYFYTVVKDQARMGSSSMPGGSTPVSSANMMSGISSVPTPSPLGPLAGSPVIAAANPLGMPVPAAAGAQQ
Protocol: as §1, §2, §3, §4

[20] = target: MAPKAP-K2 (Homo sapiens, UniProt P49137); details: MAPKAP-K2 (Entrez MAPKAPK2), read-out: Residual activity (%)
MAPKAP-K2, sequence (P49137 whole entry): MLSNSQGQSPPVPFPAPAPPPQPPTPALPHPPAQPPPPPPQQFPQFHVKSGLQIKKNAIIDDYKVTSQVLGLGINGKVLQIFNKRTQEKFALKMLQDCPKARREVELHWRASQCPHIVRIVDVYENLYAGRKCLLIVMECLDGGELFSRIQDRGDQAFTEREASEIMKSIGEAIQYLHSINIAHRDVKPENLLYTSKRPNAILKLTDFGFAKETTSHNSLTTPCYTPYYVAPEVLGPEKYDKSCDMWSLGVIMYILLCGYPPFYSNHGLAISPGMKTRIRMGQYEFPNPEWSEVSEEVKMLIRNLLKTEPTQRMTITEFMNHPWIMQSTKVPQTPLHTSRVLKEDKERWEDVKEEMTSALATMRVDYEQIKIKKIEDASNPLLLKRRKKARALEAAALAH
Protocol: as §1, §2, §3, §4

[21] = target: CK1δ (Homo sapiens, UniProt P48730); details: CK1δ (Entrez CSNK1G2), read-out: Residual activity (%)
Protocol: as §1, §2, §3, §4

[22] = target: PAK4 (Homo sapiens, UniProt O96013); details: PAK4 (Entrez PAK4), read-out: Residual activity (%)
Protocol: as §1, §2, §3, §4

[23] = target: EPH-A2 (Homo sapiens, UniProt P29317); details: EPH-A2 (Entrez EPHA2), read-out: Residual activity (%)
Protocol: as §1, §2, §3, §4

[24] = target: PKCz (Homo sapiens, UniProt Q05513); details: PKCz (Entrez PRKCZ), read-out: Residual activity (%)
PKCz, sequence (Q05513 whole entry): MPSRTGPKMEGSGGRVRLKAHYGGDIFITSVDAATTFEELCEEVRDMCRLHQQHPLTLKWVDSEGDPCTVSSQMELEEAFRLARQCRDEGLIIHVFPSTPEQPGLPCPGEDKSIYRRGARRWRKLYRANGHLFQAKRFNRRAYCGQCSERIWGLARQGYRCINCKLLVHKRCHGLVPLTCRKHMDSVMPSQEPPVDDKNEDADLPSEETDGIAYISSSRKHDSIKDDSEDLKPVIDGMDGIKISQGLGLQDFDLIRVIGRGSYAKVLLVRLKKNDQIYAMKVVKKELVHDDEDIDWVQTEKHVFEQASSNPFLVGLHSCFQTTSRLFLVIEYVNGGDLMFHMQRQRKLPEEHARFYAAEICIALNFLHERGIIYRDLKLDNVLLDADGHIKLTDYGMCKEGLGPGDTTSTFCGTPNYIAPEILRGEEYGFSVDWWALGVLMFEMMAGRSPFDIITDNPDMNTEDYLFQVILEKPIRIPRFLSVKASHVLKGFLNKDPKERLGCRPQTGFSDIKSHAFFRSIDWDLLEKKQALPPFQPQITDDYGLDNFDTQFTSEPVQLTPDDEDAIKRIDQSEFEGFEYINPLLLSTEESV
Protocol: as §1, §2, §3, §4

[25] = target: DDR2 (Homo sapiens, UniProt Q16832); details: DDR2 (Entrez DDR2), read-out: Residual activity (%)
Protocol: as §1, §2, §3, §4

[26] = target: MNK2 (Homo sapiens, UniProt Q9HBH9); details: MNK2 (Entrez MKNK2), read-out: Residual activity (%)
Protocol: as §1, §2, §3, §4

[27] = target: BRK (Homo sapiens, UniProt Q13882); details: BRK (Entrez PTK6), read-out: Residual activity (%)
Protocol: as §1, §2, §3, §4

[28] = target: MAPKAP-K3 (Homo sapiens, UniProt Q16644); details: MAPKAP-K3 (Entrez MAPKAPK3), read-out: Residual activity (%)
Protocol: as §1, §2, §3, §4

[29] = target: p38b MAPK (Homo sapiens, UniProt Q15759); details: p38b MAPK (Entrez MAPK11), read-out: Residual activity (%)
p38b MAPK, sequence (Q15759 whole entry): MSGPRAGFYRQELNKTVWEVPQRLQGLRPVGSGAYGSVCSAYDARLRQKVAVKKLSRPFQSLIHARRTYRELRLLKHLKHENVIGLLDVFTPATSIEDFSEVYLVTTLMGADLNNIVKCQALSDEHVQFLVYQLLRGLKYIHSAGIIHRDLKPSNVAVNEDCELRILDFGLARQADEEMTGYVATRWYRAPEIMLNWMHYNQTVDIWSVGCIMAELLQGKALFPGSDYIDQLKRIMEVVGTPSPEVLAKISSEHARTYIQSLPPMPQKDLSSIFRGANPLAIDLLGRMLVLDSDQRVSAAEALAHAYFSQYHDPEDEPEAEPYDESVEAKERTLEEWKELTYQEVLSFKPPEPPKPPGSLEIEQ
Protocol: as §1, §2, §3, §4

[30] = target: GSK3b (Homo sapiens, UniProt P49841); details: GSK3b (Entrez GSK3B), read-out: Residual activity (%)
Protocol: as §1, §2, §3, §4

PDK1, sequence (O15530 whole entry): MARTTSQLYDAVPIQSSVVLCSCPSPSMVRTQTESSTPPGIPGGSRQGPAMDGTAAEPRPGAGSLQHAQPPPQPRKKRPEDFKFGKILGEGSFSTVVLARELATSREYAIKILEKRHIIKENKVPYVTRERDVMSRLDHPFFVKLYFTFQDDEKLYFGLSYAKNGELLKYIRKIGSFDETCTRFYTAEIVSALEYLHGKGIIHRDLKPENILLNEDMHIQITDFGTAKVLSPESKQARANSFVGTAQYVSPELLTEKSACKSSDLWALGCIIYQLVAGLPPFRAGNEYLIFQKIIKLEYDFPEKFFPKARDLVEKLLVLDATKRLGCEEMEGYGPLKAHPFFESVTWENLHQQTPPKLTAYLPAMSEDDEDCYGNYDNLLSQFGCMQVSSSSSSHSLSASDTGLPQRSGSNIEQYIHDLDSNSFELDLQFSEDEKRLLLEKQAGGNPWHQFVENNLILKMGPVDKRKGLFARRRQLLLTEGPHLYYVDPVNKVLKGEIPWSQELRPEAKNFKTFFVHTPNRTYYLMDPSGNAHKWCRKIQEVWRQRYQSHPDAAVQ

`COc1ccc(Nc2ncnc3c2ccn3-c2ccc(C)c(C)c2)cc1Cl` [compound 36] was tested, and the remaining activity at 1 µM [1] was 133%, the remaining activity at 1 µM [2] was 87% and the remaining activity at 1 µM [3] was 86%. For the same compound, the remaining activity at 1 µM [4] was 113%, the remaining activity at 1 µM [5] was 76% and the remaining activity at 1 µM [6] was 108%. For the same compound, the remaining activity at 1 µM [7] was 63%, the remaining activity at 1 µM [8] was 97% and the remaining activity at 1 µM [9] was 107%. It also gave a remaining activity at 1 µM [10] of 68%, a remaining activity at 1 µM [11] of 85% and a remaining activity at 1 µM [12] of 96%. It also gave a remaining activity at 1 µM [13] of 76%, a remaining activity at 1 µM [14] of 103% and a remaining activity at 1 µM [15] of 109%. It also gave a remaining activity at 1 µM [16] of 98%, a remaining activity at 1 µM [17] of 94% and a remaining activity at 1 µM [18] of 99%. For the same compound, the remaining activity at 1 µM [19] was 97%, the remaining activity at 1 µM [20] was 109% and the remaining activity at 1 µM [21] was 92%. It also gave a remaining activity at 1 µM [22] of 78%, a remaining activity at 1 µM [23] of 83% and a remaining activity at 1 µM [24] of 111%. For the same compound, the remaining activity at 1 µM [25] was 115%, the remaining activity at 1 µM [26] was 90% and the remaining activity at 1 µM [27] was 126%. The remaining activity at 1 µM [28] was 101%, the remaining activity at 1 µM [29] was 103% and the remaining activity at 1 µM [30] was 102%.
